Source: patent US20250034159A1, “INHIBITORS OF EPIDERMAL GROWTH FACTOR RECEPTOR” (ORIC Pharmaceuticals, Inc., priority 2021, published 2025)

What was measured:
[1] = target: recombinant human EGFR exon 19 deletion/C797S double mutant protein (Homo sapiens (Human), UniProt P00533, C797S/DEL746-750); test: Biological Activity Assay C: biochemical assay against EGFR exon 19 deletion/C797S protein (EGFR d19/CS)
Outline: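 IC50 values were fitted with a 4-parameter model to reaction slopes taken from 90 kinetic reads spaced 120 s apart. The Phosphosens sensor/ATP working solution was 40 uM/4 mM, and compound was dosed as 16-point dilutions at 2.5% final DMSO.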

[2] = target: recombinant human EGFR L858R/C797S double mutant protein (Homo sapiens (Human), UniProt P00533, C797S/L858R); test: Biological Activity Assay B: biochemical assay against EGFR L858R/C797S protein (EGFR LR/CS)
Description: In Row A of a 384-well polypropylene plate, was added 48 μL of DMSO. In wells A1 and A24, were added 12 μL of DMSO. […] To a well in Row A were added 12 μL of each 10 mM test compound stock (100% DMSO). […] The final intermediate dilution plate contained 4×16-point compound serial dilutions in assay buffer. The DMSO concentration was 10%. The intermediate compound dilution plate was transferred to the Bravo and the “5 uL dispense into ARP.pro” protocol was run. To the black low volume assay ready plates, were added 5 μL of 40 uM Phosphosens peptide sensor/4 mM ATP working solution to each well. […] To column 24, was added 10 μL of assay buffer. The final DMSO concentration was 2.5%. […] The plates were sealed with the TopSeal-A Plus plate seals. […] Set for 90 cycles with 120 second interval. […] The slope of each curve was constructed using Dotmatics in each well, and each IC50s was calculated using a 4-parameter fit model.

[3] = test system: Ba/F3_EGFR WT cells; test: Biological Activity Assay D: BaF3 cell proliferation assay, EGFR wild-type (BaF3 WT); type: cell-based; details: Ba/F3 EGFR; Ba/F3_EGFR WT cells, ~72 hours, CellTiter-Glo; read-out: BaF3 WT IC50
[4] = test system: BaF3_EGFR d19/CS cells; test: Biological Activity Assay D: BaF3 cell proliferation assay, EGFR exon 19 deletion/C797S (BaF3 d19/CS); type: cell-based; details: Ba/F3 EGFR; BaF3_EGFR d19/CS cells, ~72 hours, CellTiter-Glo; read-out: BaF3 d19/CS IC50
[5] = test system: BaF3_EGFR LR/CS cells; test: Biological Activity Assay D: BaF3 cell proliferation assay, EGFR L858R/C797S mutant (BaF3 LR/CS); type: cell-based; details: Ba/F3 EGFR; BaF3_EGFR LR/CS cells, ~72 hours, CellTiter-Glo; read-out: BaF3 LR/CS IC50

Sequence of recombinant human EGFR exon 19 deletion/C797S double mutant protein (P00533 other isoform, or with tags, fused parts or gaps C797S/del 1-668/del 746-750 limits assumed): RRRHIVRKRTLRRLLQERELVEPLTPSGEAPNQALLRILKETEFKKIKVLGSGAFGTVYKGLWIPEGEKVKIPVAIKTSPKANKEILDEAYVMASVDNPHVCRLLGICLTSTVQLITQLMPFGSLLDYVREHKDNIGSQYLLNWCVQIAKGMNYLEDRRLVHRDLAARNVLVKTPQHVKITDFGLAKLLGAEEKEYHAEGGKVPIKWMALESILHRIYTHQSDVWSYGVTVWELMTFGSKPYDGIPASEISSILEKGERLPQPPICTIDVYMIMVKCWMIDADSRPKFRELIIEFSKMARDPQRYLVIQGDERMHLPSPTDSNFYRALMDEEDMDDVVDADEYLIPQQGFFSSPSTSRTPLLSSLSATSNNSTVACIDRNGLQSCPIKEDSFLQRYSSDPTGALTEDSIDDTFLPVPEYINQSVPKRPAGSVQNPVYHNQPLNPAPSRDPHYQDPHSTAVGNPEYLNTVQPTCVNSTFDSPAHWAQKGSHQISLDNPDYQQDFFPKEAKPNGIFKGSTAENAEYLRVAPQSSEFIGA
Sequence of recombinant human EGFR L858R/C797S double mutant protein (P00533 25-1210 C797S/L858R): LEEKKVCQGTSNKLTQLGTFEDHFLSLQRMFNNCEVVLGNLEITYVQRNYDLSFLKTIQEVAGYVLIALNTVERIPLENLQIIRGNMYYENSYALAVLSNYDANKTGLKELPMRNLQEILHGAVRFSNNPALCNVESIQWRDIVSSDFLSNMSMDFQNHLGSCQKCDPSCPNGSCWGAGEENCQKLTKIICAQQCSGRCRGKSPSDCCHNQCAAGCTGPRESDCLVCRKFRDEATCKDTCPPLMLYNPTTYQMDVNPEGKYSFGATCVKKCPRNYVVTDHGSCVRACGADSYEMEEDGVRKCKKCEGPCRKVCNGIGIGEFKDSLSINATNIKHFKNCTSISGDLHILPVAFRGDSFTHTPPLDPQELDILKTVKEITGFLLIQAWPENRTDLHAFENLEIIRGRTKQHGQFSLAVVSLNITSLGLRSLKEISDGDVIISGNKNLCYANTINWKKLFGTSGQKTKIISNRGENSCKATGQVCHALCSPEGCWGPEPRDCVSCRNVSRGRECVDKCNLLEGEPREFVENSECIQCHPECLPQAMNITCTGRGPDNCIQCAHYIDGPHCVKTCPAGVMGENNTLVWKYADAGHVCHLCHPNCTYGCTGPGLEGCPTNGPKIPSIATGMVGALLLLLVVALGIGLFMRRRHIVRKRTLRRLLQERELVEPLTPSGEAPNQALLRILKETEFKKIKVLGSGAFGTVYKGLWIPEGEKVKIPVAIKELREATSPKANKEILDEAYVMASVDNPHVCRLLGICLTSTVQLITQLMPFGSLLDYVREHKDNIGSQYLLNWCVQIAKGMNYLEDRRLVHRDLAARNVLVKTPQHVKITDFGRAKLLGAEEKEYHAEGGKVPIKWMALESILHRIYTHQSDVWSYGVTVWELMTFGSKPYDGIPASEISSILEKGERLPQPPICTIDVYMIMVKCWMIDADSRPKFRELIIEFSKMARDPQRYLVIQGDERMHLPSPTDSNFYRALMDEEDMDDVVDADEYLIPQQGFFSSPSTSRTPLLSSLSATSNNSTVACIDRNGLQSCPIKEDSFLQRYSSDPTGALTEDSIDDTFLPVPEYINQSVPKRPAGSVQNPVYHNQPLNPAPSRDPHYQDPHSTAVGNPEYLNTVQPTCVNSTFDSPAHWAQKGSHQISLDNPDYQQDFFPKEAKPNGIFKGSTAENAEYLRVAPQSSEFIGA

Row | SMILES | IC50 [1] [nM] | IC50 [2] [nM] | IC50 [3] [nM] | IC50 [4] [nM] | IC50 [5] [nM]
1 | OCCCn1cc(-c2ncnc3[nH]c(-c4ccccc4)nc23)c(-c2ccc(F)cc2)n1 [Example 6, 3-[3-(4-Fluorophenyl)-4-(8-phenyl-9H-purin-6-yl)-1H-pyrazol-1-yl]propan-1-ol] | 0.148 | 0.253 | 1100 | 5.81 | 4.4
2 | OCCCc1nc(-c2ccc(F)cc2)c(-c2ccnc3[nH]c(-c4ccccc4)cc23)s1 [Example 8, 3-[4-(4-Fluorophenyl)-5-(2-phenyl-1H-pyrrolo[2,3-b]pyridin-4-yl)-1,3-thiazol-2-yl]propan-1-01] | 1.14 | 1.09 | 754 | 19.6 | 19.6
3 | OCCCn1cc(-c2ncnc3[nH]c(-c4ccccc4)cc23)c(-c2ccc(F)cc2)n1 [Example 9, 3-[3-(4-Fluorophenyl)-4-(6-phenyl-7H-pyrrolo[2,3-d]pyrimidin-4-yl)-1H-pyrazol-1-yl]propan-1-ol] | 0.121 | 0.099 | 15.4 | 0.547 | 0.63
4 | CN1CCN(c2ccc(-c3nc4c(-c5cn(CCCO)nc5-c5ccc(F)cc5)ncnc4o3)cc2)CC1 [Example 10, 3-[3-(4-Fluorophenyl)-4-{2-[4-(4-methylpiperazin-1-yl)phenyl][1,3]oxazolo[5,4-d]pyrimidin-7-yl}-1H-pyrazol-1-yl]propan-1-ol] | 0.113 | 0.152 | 74 | 1.31 | 1.63
5 | OCCCn1cc(-c2ncnc3oc(-c4ccccc4)cc23)c(-c2ccc(F)cc2)n1 [Example 11, 3-[3-(4-Fluorophenyl)-4-(6-phenylfuro[2,3-d]pyrimidin-4-yl)-1H-pyrazol-1-yl]propan-1-ol] | 0.408 | 0.521 | 594 | 5.79 | 6.91
6 | OCCCc1cc(-c2ccnc3[nH]c(-c4ccccc4)cc23)n(-c2ccc(F)cc2)n1 [Example 12, 3-[1-(4-fluorophenyl)-5-{2-phenyl-1H-pyrrolo[2,3-b]pyridin-4-yl}pyrazol-3-yl]propan-1-ol] | 0.732 | 1.08 | 483 | 21.4 | 25.3
7 | CN1CCN(c2ccc(-c3nc4c(-c5cn(CCCO)nc5-c5ccc(F)cc5)ccnc4[nH]3)cc2)CC1 [Example 13, 3-[3-(4-Fluorophenyl)-4-{2-[4-(4-methylpiperazin-1-yl)phenyl]-3H-imidazo[4,5-b]pyridin-7-yl}-1H-pyrazol-1-yl]propan-1-ol] | 0.173 | 0.272 | 255 | 3.71 | 4.1
8 | CN1CC=C(c2cc3c(-c4cn(CCCO)nc4-c4ccc(F)cc4)ccnc3[nH]2)CC1 [Example 14, 3-{3-(4-Fluorophenyl)-4-[2-(1-methyl-1,2,3,6-tetrahydropyridin-4-yl)-1H-pyrrolo[2,3-b]pyridin-4-yl]-1H-pyrazol-1-yl}propan-1-ol] | 3.3 | 7.58 | 1350 | 113 | 120
9 | CN1CCN(c2ccc(-c3nc4c(-c5cn(CCCO)nc5-c5ccc(F)cc5)ncnc4[nH]3)cc2)CC1 [Example 15, 3-[3-(4-Fluorophenyl)-4-{8-[4-(4-methylpiperazin-1-yl)phenyl]-9H-purin-6-yl}-1H-pyrazol-1-yl]propan-1-ol] | 0.207 | 0.27 | 64.7 | 0.949 | 1.02

The next lines start with the values.

Row | IC50 [1] [nM] | IC50 [2] [nM] | IC50 [3] [nM] | IC50 [4] [nM] | IC50 [5] [nM] | SMILES
10 | 1.57 | 1.47 | 816 | 3.39 | 4.38 | N#Cc1c(-c2ccc(F)cc2)c(-c2ccnc3[nH]c(-c4ccccc4)cc23)nn1CCCO [Example 16, 4-(4-Fluorophenyl)-1-(3-hydroxypropyl)-3-(2-phenyl-1H-pyrrolo[2,3-b]pyridin-4-yl)-1H-pyrazole-5-carbonitrile]
11 | 3.46 | 8.44 | 1740 | 157 | 153 | OCCCn1cc(-c2ccnc3[nH]c(-c4nnco4)cc23)c(-c2ccc(F)cc2)n1 [Example 17, 3-{3-(4-Fluorophenyl)-4-[2-(1,3,4-oxadiazol-2-yl)-1H-pyrrolo[2,3-b]pyridin-4-yl]-1H-pyrazol-1-yl}propan-1-ol]
12 | 0.0926 | 0.141 | 71.4 | 1.83 | 2.06 | CN1CCN(c2ccc(-c3cc4c(-c5nn(CCCO)nc5-c5ccc(F)cc5)ccnc4[nH]3)cc2)CC1 [Example 18, 3-[4-(4-Fluorophenyl)-5-{2-[4-(4-methylpiperazin-1-yl)phenyl]-1H-pyrrolo[2,3-b]pyridin-4-yl}-2H-1,2,3-triazol-2-yl]propan-1-ol]
13 | 0.17 | 0.242 | 8.67 | 0.244 | 0.402 | CN1CCN(c2ccc(-c3cc4c(-c5cn(CCCO)nc5-c5ccc(F)cc5)ncnc4[nH]3)cc2)CC1 [Example 19, 3-[3-(4-Fluorophenyl)-4-{6-[4-(4-methylpiperazin-1-yl)phenyl]-7H-pyrrolo[2,3-d]pyrimidin-4-yl}-1H-pyrazol-1-yl]propan-1-ol]
14 | 4.19 | 4.92 | 5340 | 686 | 578 | CCC(=O)CCn1cc(-c2ncnc3oc(-c4ccccc4)nc23)c(-c2ccc(F)cc2)n1 [Example 20, 1-[3-(4-fluorophenyl)-4-(2-phenyl[1,3]oxazolo[5,4-d]pyrimidin-7-yl)-1H-pyrazol-1-yl]pentan-3-one]
15 | 5.47 | 5.2 | 18500 | 539 | 375 | CC(C)(O)CCn1cc(-c2ncnc3oc(-c4ccccc4)nc23)c(-c2ccc(F)cc2)n1 [Example 21, 4-[3-(4-Fluorophenyl)-4-(2-phenyl[1,3]oxazolo[5,4-d]pyrimidin-7-yl)-1H-pyrazol-1-yl]-2-methylbutan-2-ol]
16 | 90.9 | 197 | 20000 | 4100 | 3660 | CC(C)(O)CCn1ncc(-c2ncnc3oc(-c4ccccc4)nc23)c1-c1ccc(F)cc1 [Example 22, 4-[5-(4-fluorophenyl)-4-(2-phenyl[1,3]oxazolo[5,4-d]pyrimidin-7-yl)-1H-pyrazol-1-yl]-2-methylbutan-2-ol]
17 | 0.633 | 1.1 | 2650 | 31.9 | 69.9 | OCCCCn1nc(-c2ccc(F)cc2)c(-c2ccnc3[nH]c(-c4ccccc4)cc23)n1 [Example 23, 4-[4-(4-Fluorophenyl)-5-(2-phenyl-1H-pyrrolo[2,3-b]pyridin-4-yl)-2H-1,2,3-triazol-2-yl]butan-1-ol]
18 | 0.909 | 1.13 | 2490 | 44.7 | 124 | OC1(CCn2cc(-c3ncnc4oc(-c5ccccc5)cc34)c(-c3ccc(F)cc3)n2)CC1 [Example 24, 1-{2-[3-(4-fluorophenyl)-4-(6-phenylfuro[2,3-d]pyrimidin-4-yl)-1H-pyrazol-1-yl]ethyl}cyclopropan-1-ol]
19 | 7.72 | 13 | 3490 | 810 | 726 | N#CCn1cc(-c2ncnc3oc(-c4ccccc4)nc23)c(-c2ccc(F)cc2)n1 [Example 25, [3-(4-fluorophenyl)-4-(2-phenyl[1,3]oxazolo[5,4-d]pyrimidin-7-yl)-1H-pyrazol-1-yl]acetonitrile]
20 | 4.22 | 4.06 | 6410 | 486 | 562 | Fc1ccc(-c2nn(CCCC(F)F)cc2-c2ncnc3oc(-c4ccccc4)nc23)cc1 [Example 26, 7-[1-(4,4-difluorobutyl)-3-(4-fluorophenyl)-1H-pyrazol-4-yl]-2-phenyl[1,3]oxazolo[5,4-d]pyrimidine]
21 | 3.12 | 8.65 | 11700 | 464 | 208 | OCCn1nc(-c2ccc(F)cc2)c(-c2ncnc3[nH]c(-c4ccccc4)nc23)n1 [Example 27, 2-[4-(4-Fluorophenyl)-5-(8-phenyl-9H-purin-6-yl)-2H-1,2,3-triazol-2-yl]ethan-1-ol]
22 | 4.16 | 10.8 | 17800 | 885 | 493 | OCCCCn1nc(-c2ccc(F)cc2)c(-c2ncnc3[nH]c(-c4ccccc4)nc23)n1 [Example 28, 4-[4-(4-fluorophenyl)-5-(8-phenyl-9H-purin-6-yl)-2H-1,2,3-triazol-2-yl]butan-1-ol]
